This assay relates to 276233-004-R-J1-PDC complex spheroid viability. In words: Anticancer human tumor 276233-004-R-J1-PDC patient-derived colon adenocarcinoma cell line growth inhibition [GQUAD]. The note with it: for viability, T/C: stronger effect = lower value. The source says:
DNA G-quadruplex Stabilizer Agents in Combinations in Complex Spheroids
A high-throughput screen of multi-cell type tumor spheroids was designed to identify active combinations of DNA G-quadruplex stabilizer agents and targeted small molecules. Complex spheroids include a stromal component modeled by human endothelial cells (HUVEC) and fibroblasts modeled by human mesenchymal stem cells (MSCs). The concentration ranges selected for each drug and investigational agent were based upon clinically achievable concentrations if the clinical Cmax of the agent was known.
Compounds. The drugs and investigational agents: pidnarulex (CX-5461; NSC782164), APTO-253 (NSC789042), BRACO-19 (NSC847499), peposertib (NSC802822), ceralasertib (NSC780249), elimusertib (NSC800525), camonsertib (NSC841442), AZD-1390 (NSC803789), olaparib (NSC753686), talazoparib (NSC767125), ART-558 (NSC835418), sotorasib (NSC818433), MRTX-1133 (NSC836407), SN-38 (NSC673596), topotecan (NSC609699), etoposide (NSC141540), doxorubicin (NSC123127), gemcitabine (NSC613327), 5-fluorouracil (NSC19893), paclitaxel (NSC125973), vemurafenib (NSC761431), panobinostat (NSC761190), R-306465 (JNJ-16241199; NSC773264), adavosertib (NSC754352), TP-3654 (NSC805149), carboplatin (NSC241240), KSQ-4279 (NSC840948), and staurosporine (NSC755774) were obtained from the National Cancer Institute (NCI) Developmental Therapeutics Program Chemical Repository (34). The FDA-approved anticancer drug set is available from the NCI Developmental Therapeutics Program. […] The stock solutions were prepared in dimethyl sulfoxide (DMSO, Sigma-Aldrich, St. Louis, MO, cat. D2650) at 800-fold the tested concentration and stored at -70 degrees C prior to their use. All drugs and investigational agents were tested over a range starting from a high concentration at or near the clinical Cmax and decreasing in half-log increments. If the clinical Cmax for an agent had not been determined, the highest concentration tested was 10 microM.
2.3 Cell Culture. All cells were maintained in an incubator at 37 degrees C and 5% CO2 with 95% humidity. The PDC lines were cultured according to standard operating procedures established by the NCI PDMR. All PDCs were thawed and cultured in Matrigel-coated flasks prepared with a working solution of 1X Ham's F-12 nutrient mix, without supplementation (Invitrogen, cat. 11765054), 100 U/mL penicillin-streptomycin (Invitrogen, cat. 15140122), and 2.5% Matrigel (Corning Inc., cat. 354248) for the first three passages. The 857933-349-R-J2-PDC line was cultured in 6C/Colon 1B media, which includes advanced DMEM/F-12 (Thermo Fisher Scientific, cat. 12634028), 10 mM HEPES (Thermo Fisher Scientific, cat. 15630080), 1X GlutaMAX supplement (Thermo Fisher Scientific, cat. 35050061), 0.1 mg/mL primocin (InvivoGen, cat. ant-pm-2), 10% defined fetal bovine serum, heat inactivated (HyClone Laboratories Inc., cat. SH30070.03HI), 50% L-WRN conditioned media (ATCC, cat. CRL-3276), 1.25 mM N-Acetyl-L-cysteine (Sigma-Aldrich, cat. A9165), 10 mM nicotinamide (Sigma-Aldrich, cat. N0636), 1X B-27 supplement (Thermo Fisher Scientific, cat. 17504044), 1X N-2 supplement (Thermo Fisher Scientific, cat. 17502048), 10 microM Y-27632 dihydrochloride (Tocris Bioscience, cat. 1254), and 50 ng/mL human EGF recombinant protein (Thermo Fisher Scientific, cat. PHG0311). The 485176-168-R4-J1-PDC line was cultured in Panc media, which includes all 6C/Colon 1B media components plus 100 ng/mL human FGF-10 (Thermo Fisher Scientific, cat. 100-26), 500 nM SB-431542 (Selleckchem, cat. S1067), and gastrin (Tocris, cat. 3006).
[…]

IC50 and viability, T/C data for three compounds are collected here from PubChem BioAssay AID2060496 (Molecular Pharmacology Branch, DTP, NCI, 2025).

pIC50: −log10 of the molar value. Several values for one entry are separate records, joined by “and”; a condition that tells them apart may be missing. Equal entries are not always repeated.
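Further: spheroids exposed to drugs for seven days.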

What is called pIC50 is −log10 of the IC50, conventionally taken in molar units. As a reminder, the viability, T/C is the ratio of treated to control. For the compound `O=C(NO)c1cnc(N2CCN(S(=O)(=O)c3ccc4ccccc4c3)CC2)nc1` + CN(C)c1ccc(Nc2c3ccc(NC(=O)CCN4CCCC4)cc3nc3cc(NC(=O)CCN4CCCC4)ccc23)cc1, the pIC50 (curve of first compound, second compound 0.0316 µM) is 6.25; the negative-log IC50 (pIC50) (curve of first compound, second compound 0.1 µM) was 6.42; the pIC50 (curve of first compound, second compound 0.316 µM) is 6.54; the pIC50 (curve of first compound, second compound 1 µM) is 6.41; the pIC50 (curve of first compound, second compound 3.16 µM) is 6.68; the pIC50 (curve of first compound, second compound 10 µM) is more than 7.50. Also, the viability, T/C (second compound 0.0316 µM, first compound 0.0316 µM) was 97.6%; the viability, T/C (second compound 0.0316 µM, first compound 0.1 µM) is 110%; the viability, T/C (second compound 0.0316 µM, first compound 0.316 µM) was 93.9%; the viability, T/C (second compound 0.0316 µM, first compound 1 µM) was 6.51%; the viability, T/C (second compound 0.0316 µM, first compound 3.16 µM) was 1.16%; the viability, T/C (second compound 0.0316 µM, first compound 10 µM) was 0.86%. For the same compound, the viability, T/C (second compound 0.1 µM, first compound 0.0316 µM) is 77.9%; the viability, T/C (second compound 0.1 µM, first compound 0.1 µM) is 138%; the viability, T/C (second compound 0.1 µM, first compound 0.316 µM) is 59.3%; the viability, T/C (second compound 0.1 µM, first compound 1 µM) was 5.11%; the viability, T/C (second compound 0.1 µM, first compound 3.16 µM) was 0.78%; the viability, T/C (second compound 0.1 µM, first compound 10 µM) was 1.12%. In addition, the viability, T/C runs as follows: (second compound 0.316 µM, first compound 0.0316 µM) 61%; (second compound 0.316 µM, first compound 0.1 µM) 90.4%; (second compound 0.316 µM, first compound 0.316 µM) 48%; (second compound 0.316 µM, first compound 1 µM) 4.4%; (second compound 0.316 µM, first compound 3.16 µM) 1.75%; (second compound 0.316 µM, first compound 10 µM) 1.22%. For the same compound, the viability, T/C is 70% (second compound 1 µM, first compound 0.0316 µM); 85.4% (second compound 1 µM, first compound 0.1 µM); 59.9% (second compound 1 µM, first compound 0.316 µM); 1.33% (second compound 1 µM, first compound 1 µM); 1.89% (second compound 1 µM, first compound 3.16 µM); 2.09% (second compound 1 µM, first compound 10 µM). In addition, the viability, T/C by setting is: (second compound 3.16 µM, first compound 0.0316 µM) 74.2%; (second compound 3.16 µM, first compound 0.1 µM) 68.7%; (second compound 3.16 µM, first compound 0.316 µM) 38.8%; (second compound 3.16 µM, first compound 1 µM) 3.01%; (second compound 3.16 µM, first compound 3.16 µM) 1.99%; (second compound 3.16 µM, first compound 10 µM) 0.85%. For the same compound, the viability, T/C (second compound 10 µM, first compound 0.0316 µM) is 35.5%; the viability, T/C (second compound 10 µM, first compound 0.1 µM) is 45.6%; the viability, T/C (second compound 10 µM, first compound 0.316 µM) is 25.5%; the viability, T/C (second compound 10 µM, first compound 1 µM) is 5.18%; the viability, T/C (second compound 10 µM, first compound 3.16 µM) was 1.04%; the viability, T/C (second compound 10 µM, first compound 10 µM) is 1.85%.
For the compound `COc1ccc([C@@H](O)c2cc(-c3ncnc4cc(N5CCOCC5)ccc34)c(F)cc2Cl)nn1`, the viability, T/C is, setting by setting: (compound 0.0316 µM) 91.6% and 98.8% and 86%; (compound 0.1 µM) 81% and 98.4% and 55%; (compound 0.316 µM) 95.6% and 97.8% and 80.1%; (compound 1 µM) 75.1% and 80.2% and 68.1%; (compound 3.16 µM) 75.5% and 68% and 68.3%; (compound 10 µM) 61.6% and 65.6% and 59.3%. Further, where the note is “curve of compound”, the pIC50 is less than 5.00.
For the compound `Cn1ncnc1[C@H]1c2n[nH]c(=O)c3cc(F)cc(c23)N[C@@H]1c1ccc(F)cc1`, the viability, T/C is 108% and 94.2% and 85.9% (compound 0.000999 µM); 84.1% and 111% and 82.8% (compound 0.00316 µM); 97.9% and 83.5% and 81.7% (compound 0.00999 µM); 80% and 83.1% and 87.4% (compound 0.0316 µM); 108% and 84.9% and 87.8% (compound 0.0999 µM); 102% and 89.6% and 80.9% (compound 0.316 µM). Moreover, under “curve of compound”, the pIC50 was less than 6.50.
